Measurements published in PubChem BioAssay AID1963960 (Molecular Pharmacology Branch, DTP, NCI, 2024).

System: MDA-MB-468 spheroids with HUVEC/MSC, viability
Test: Anticancer human tumor MDA-MB-468 cell line growth inhibition [PI3K];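 also: spheroids exposed to agents for seven days before readout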;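 as to viability, T/C: 100% = DMSO vehicle control viability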
Conditions: for IC50: curve of first compound; for viability, T/C: stronger effect = lower value; active = viability on the fitted dose curve at most 10% of control; inactive = the rest
Outline: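 Agents were dosed from a top concentration near clinical Cmax (otherwise 10 microM) in half-log decrements, alone or combined with PI3K inhibitors. The spheroids contain tumor cells plus endothelial (HUVEC) and MSC stroma; viability is measured.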

[1] = second compound 0.0316 µM, first compound 0.0316 µM
[2] = second compound 0.0316 µM, first compound 0.1 µM
[3] = second compound 0.0316 µM, first compound 0.316 µM
[4] = second compound 0.0316 µM, first compound 1 µM
[5] = second compound 0.1 µM, first compound 0.0316 µM
[6] = second compound 0.1 µM, first compound 0.1 µM
[7] = second compound 0.1 µM, first compound 0.316 µM
[8] = second compound 0.1 µM, first compound 1 µM
[9] = second compound 0.316 µM, first compound 0.0316 µM
[10] = second compound 0.316 µM, first compound 0.1 µM
[11] = second compound 0.316 µM, first compound 0.316 µM
[12] = second compound 0.316 µM, first compound 1 µM
[13] = second compound 1 µM, first compound 0.0316 µM
[14] = second compound 1 µM, first compound 0.1 µM
[15] = second compound 1 µM, first compound 0.316 µM
[16] = second compound 1 µM, first compound 1 µM

CCN1CCN(Cc2ccc(Nc3ncc(F)c(-c4cc(F)c5nc(C)n(C(C)C)c5c4)n3)nc2)CC1 + CC(Nc1ncnc2nc[nH]c12)c1cc2cccc(Cl)c2c(=O)n1-c1ccccc1
inactive: viability, T/C (second compound 0.0316 µM, first compound 0.00316 µM) 98.7% | viability, T/C (second compound 0.0316 µM, first compound 0.01 µM) 89.8% | viability, T/C [1] 88.1% | viability, T/C [2] 88.1% | viability, T/C [3] 85.3% | viability, T/C [4] 67.9% | viability, T/C (second compound 0.1 µM, first compound 0.00316 µM) 85.3% | viability, T/C (second compound 0.1 µM, first compound 0.01 µM) 92.7% | viability, T/C [5] 94.1% | viability, T/C [6] 93.7% | viability, T/C [7] 79.3% | viability, T/C [8] 60.1% | viability, T/C (second compound 0.316 µM, first compound 0.00316 µM) 78.3% | viability, T/C (second compound 0.316 µM, first compound 0.01 µM) 81.1% | viability, T/C [9] 82.3% | viability, T/C [10] 65.5% | viability, T/C [11] 81% | viability, T/C [12] 56.6% | viability, T/C (second compound 1 µM, first compound 0.00316 µM) 58.2% | viability, T/C (second compound 1 µM, first compound 0.01 µM) 70% | viability, T/C [13] 69.5% | viability, T/C [14] 61.7% | viability, T/C [15] 56.9% | viability, T/C [16] 51.5% | viability, T/C (second compound 3.16 µM, first compound 0.00316 µM) 60.9% | viability, T/C (second compound 3.16 µM, first compound 0.01 µM) 57.4% | viability, T/C (second compound 3.16 µM, first compound 0.0316 µM) 57.9% | viability, T/C (second compound 3.16 µM, first compound 0.1 µM) 53.7% | viability, T/C (second compound 3.16 µM, first compound 0.316 µM) 55.1% | viability, T/C (second compound 3.16 µM, first compound 1 µM) 48.1% | viability, T/C (second compound 10 µM, first compound 0.00316 µM) 40.9% | viability, T/C (second compound 10 µM, first compound 0.01 µM) 42.4% | viability, T/C (second compound 10 µM, first compound 0.0316 µM) 41% | viability, T/C (second compound 10 µM, first compound 0.1 µM) 40% | viability, T/C (second compound 10 µM, first compound 0.316 µM) 37.8% | viability, T/C (second compound 10 µM, first compound 1 µM) 31.8%
< 3.16 nM: IC50 (second compound 10 µM)
> 1000 nM: IC50 (second compound 0.0316 µM) | IC50 (second compound 0.1 µM) | IC50 (second compound 0.316 µM) | IC50 (second compound 1 µM) | IC50 (second compound 3.16 µM)

CC(Cn1ccc(-c2ccc(C#N)c(Cl)c2)n1)NC(=O)c1cc(C(C)O)[nH]n1 (centres undefined) + COc1c(OCCCN2CCOCC2)ccc2c3n(c(=NC(=O)c4cnc(N)nc4)nc12)CCN3
inactive: viability, T/C (second compound 0.00316 µM, first compound 0.0316 µM) 88.8% | viability, T/C (second compound 0.00316 µM, first compound 0.1 µM) 90.3% | viability, T/C (second compound 0.00316 µM, first compound 0.316 µM) 94.3% | viability, T/C (second compound 0.00316 µM, first compound 1 µM) 92.3% | viability, T/C (second compound 0.00316 µM, first compound 3.16 µM) 90.5% | viability, T/C (second compound 0.00316 µM, first compound 10 µM) 75.3% | viability, T/C (second compound 0.01 µM, first compound 0.0316 µM) 92.2% | viability, T/C (second compound 0.01 µM, first compound 0.1 µM) 91.3% | viability, T/C (second compound 0.01 µM, first compound 0.316 µM) 83.4% | viability, T/C (second compound 0.01 µM, first compound 1 µM) 95.3% | viability, T/C (second compound 0.01 µM, first compound 3.16 µM) 85.3% | viability, T/C (second compound 0.01 µM, first compound 10 µM) 63.7% | viability, T/C [1] 83.6% | viability, T/C [2] 75.7% | viability, T/C [3] 87.1% | viability, T/C [4] 80.5% | viability, T/C (second compound 0.0316 µM, first compound 3.16 µM) 80.9% | viability, T/C (second compound 0.0316 µM, first compound 10 µM) 62.8% | viability, T/C [5] 55.8% | viability, T/C [6] 57% | viability, T/C [7] 60.9% | viability, T/C [8] 59.3% | viability, T/C (second compound 0.1 µM, first compound 3.16 µM) 56% | viability, T/C (second compound 0.1 µM, first compound 10 µM) 62.3% | viability, T/C [9] 26.9% | viability, T/C [10] 24.4% | viability, T/C [11] 27.3% | viability, T/C [12] 26.1% | viability, T/C (second compound 0.316 µM, first compound 3.16 µM) 26.7% | viability, T/C (second compound 0.316 µM, first compound 10 µM) 27.2%
< 31.6 nM: IC50 (second compound 0.316 µM) | IC50 (second compound 1 µM)
> 10000 nM: IC50 (second compound 0.00316 µM) | IC50 (second compound 0.01 µM) | IC50 (second compound 0.0316 µM) | IC50 (second compound 0.1 µM)
active: viability, T/C [13] 2.86% | viability, T/C [14] 2.48% | viability, T/C [15] 2.64% | viability, T/C [16] 3.21% | viability, T/C (second compound 1 µM, first compound 3.16 µM) 3.72% | viability, T/C (second compound 1 µM, first compound 10 µM) 2.3%
